Measured values from patent publication US7608750B2, “Nonhuman model animal unresponsive to immunopotentiating synthetic compound” (Japan Science and Technology Agency, priority 2001, dated 2009).

How the values were obtained:
NF-κB and MAP kinase = settings: cited from earlier work
animal model = settings: cited from earlier work
various types of cells = settings: cited from earlier work
[1] = system: peritoneal macrophages from MyD88 knockout mice; experiment: Cytokine production by peritoneal macrophages (ELISA), MyD88 knockout; assay type: cell-based, mouse; settings: 5×10^4 cells, presence or absence of 30 U/ml IFN-γ
Experimental: (§1) 2 ml of 4% thioglycollic acid medium (DIFCO) were injected into the intraperitoneals of the wild-type mice, TLR7 knockout mice (TLR7KO), MyD88 knockout mice (MyD88KO) and TLR9 knockout mice (TLR9KO), respectively, three days later, peritoneal exudate cells were isolated from intraperitoneal of each mouse, these cells were cultured in PRMI 1640 medium (GIBCO) added with 10% fatal bovine serum (GIBCO) at 37° C. for two hours, nonadherent cells were […] by washing with Hank's buffered salt solution (HBBS; GIBCO) at iced temperature, and the adherent cells were used as peritoneal macrophages in following experiment. Total RNA (10 μg) obtained from macrophages derived from the wild-type mice (+/Y) and TLR7 knockout mouse (TLR7KO) was electrophoresed, transferred onto a nylon membrane, and hybridized with a part of TLR7 DNA, and this membrane was rehybridized with β-actin probe. It was examined by the Northern blotting. From the results shown in FIG. 3, the expression of TLR7mRNA could not be found in TLR7 knockout mice.
(§2) In addition, the measurement of cytokine generated from peritoneal macrophages was executed as follows; […] peritoneal macrophages of 2×10^5 well or 5×10^4 well were cultured in 96-well plate respectively, and after stimulated with the above-mentioned reagents for 24 h, concentration of TNF-α, IL-12p40, IL-6 and/or IFN-α were measured by ELISA according to the manual.
(§3) Before examining the reactivity of TLR7 knockout mice to imiquimod and R-848 which are imidazoquinoline group compound, firstly imiquimod or R-848 were administered to BALB/c mice (wild-type) orally at the predetermined concentration, respectively, the concentration of IFN-α, TNF-α and IL-12 in serum were measured after two hours. […] The data is shown as a mean value+/−S.D. (N=3). Similarly, the ability of these compounds to activate immune cells via TLR was examined using imiquimod or R-848 respectively. The peritoneal macrophages (5×10^4 cells) from wild-type mice and MyD88 knockout mice prepared in example 2, were stimulated by imiquimod or R-848, in the presence or absence of 30 U/ml of IFN-γ, and the concentration of TNF-α and IL-12 produced by peritoneal macrophages were measured by ELISA. […] The data is shown as a mean value+/−S.D. (N=3).

human papilloma virus = settings: actual treatment; cited from earlier work
[2] = system: peritoneal macrophages from wild-type mice; experiment: Cytokine production by peritoneal macrophages (ELISA), wild-type; assay type: cell-based, mouse; settings: 5×10^4 cells, presence or absence of 30 U/ml IFN-γ
Experimental: as §1, §2, §3

cytomegalovirus = settings: cited from earlier work
BALB/c mice (wild-type) = experiment: Serum cytokines after oral administration of imidazoquinolines; assay type: in vivo, mouse; settings: after two hours, N=3
Experimental: as §3

[3] = system: type 2 herpes simplex virus; settings: cited from earlier work

Structure (SMILES): CC(C)Cn1cnc2c(N)nc3ccccc3c21 [imiquimod]
- stimulation of NF-κB and MAP kinase (NF-κB and MAP kinase): stimulates
- antitumor activity (animal model): antitumor activity
- antivirus activity (animal model): shows antivirus activity
- induction of cytokines such as IFN-α, IL-6 and IL-12 (various types of cells): inducing cytokines such as IFN-α, IL-6 and IL-12
- IL-12 produced by peritoneal macrophages [1]: hardly produced any cytokines
- TNF-α produced by peritoneal macrophages [1]: hardly produced any cytokines
- treating pudendal wart (condyloma acuminatum) caused by human papilloma virus (human papilloma virus): effective
- IL-12 produced by peritoneal macrophages [2]: in large amount
- TNF-α produced by peritoneal macrophages [2]: in large amount
- replication of cytomegalovirus (cytomegalovirus): inhibit the replication
- concentration of IFN-α in serum (BALB/c mice (wild-type)): increased depending on applied dose
- concentration of IL-12 in serum (BALB/c mice (wild-type)): increased depending on applied dose
- concentration of TNF-α in serum (BALB/c mice (wild-type)): increased depending on applied dose
- replication of type 2 herpes simplex virus [3]: inhibit the replication
